Laboratory results published in ChEMBL document CHEMBL4834435, “Discovery of Potent Coumarin-Based Kinetic Stabilizers of Amyloidogenic Immunoglobulin Light Chains Using Structure-Based Design” (J Med Chem, 2021).

Legend:
[1] = target: Immunoglobulin lambda variable 6-57 (Homo sapiens, UniProt P01721); test: Stabilization of AL patient derived full length fluorescein-labeled IGLV6-57 expressed in Escherichia coli BL21 (DE3) measured after 24 hrs by proteolysis coupled-fluorescence polarization assay
[2] = target: Immunoglobulin lambda variable 6-57 (Homo sapiens, UniProt P01721, F49Y/T46L); test: Stabilization of AL patient derived fluorescein-labeled IGLV6-57 T46L/F49Y mutant measured after 24 hrs by proteolysis coupled-fluorescence polarization assay
[3] = Protein binding in human plasma at 2 uM after 4 hrs by UPLC-MS/MS analysis; format: ADME, cell-free
[4] = Solubility of the compound; format: physicochemical

Sequence of Immunoglobulin lambda variable 6-57 (Homo sapiens, UniProt P01721) (P01721 whole entry): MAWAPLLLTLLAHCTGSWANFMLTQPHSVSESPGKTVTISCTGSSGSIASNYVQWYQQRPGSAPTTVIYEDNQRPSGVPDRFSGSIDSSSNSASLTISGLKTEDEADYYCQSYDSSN
Sequence of Immunoglobulin lambda variable 6-57 (Homo sapiens, UniProt P01721, F49Y/T46L) (P01721 whole entry, looked up, stated change not applied): as the sequence (P01721 whole entry) above

Compound CCN(CC)c1ccc2c(C)c(CCN3C(=O)NC4(CCN(S(=O)(=O)c5ccccc5)C4)C3=O)c(=O)oc2c1 (stereo not given) has an EC50 [1] of 207 nM and an EC50 [2] of 648 nM.

With Cc1cc(=O)oc2cc(OC(C)Cc3ccccc3)ccc12 (stereo not given) the EC50 [1] was 2970 nM and the EC50 [2] was 1380 nM.

For CCN(CC)c1ccc2c(C)c(CCN3C(=O)NC4(CCN(C(=O)c5ccc[nH]c5=O)C4)C3=O)c(=O)oc2c1 (stereo not given), the EC50 [2] was 3960 nM.

For CCN(CC)c1ccc2c(C)c(CCN3CC4(CCN(c5nccn6ccnc56)CC4)NC3=O)c(=O)oc2c1, the EC50 [1] was 35.6 nM, the PPB [3] was > 99.5% and the EC50 [2] was 4.9 nM.

CCN(CC)c1ccc2c(C)c(CCOC(=O)NCc3cccc(-c4ccc[nH]c4=O)c3)c(=O)oc2c1 gave an EC50 [1] of 151 nM and an EC50 [2] of 26.2 nM.

In the case of CCN(CC)c1ccc2c(C)c(CCN3C(=O)NC4(CCN(c5ncccn5)CC4)C3=O)c(=O)oc2c1, the EC50 [1] is reported as 292 nM and the EC50 [2] is reported as 165 nM.

CCCN(CC)c1ccc2c(C)cc(=O)oc2c1 gave an EC50 [1] of 7890 nM.

CCN(CC)c1ccc2c(C)c(CCN3C(=O)NC4(CCN(c5nccn6ncnc56)CC4)C3=O)c(=O)oc2c1 gave an EC50 [1] of 71.1 nM and an EC50 [2] of 55.2 nM.

With CCN(CC)c1ccc2c(C)c(CCOC(=O)NCCc3cccnc3)c(=O)oc2c1 the EC50 [1] was 1110 nM and the EC50 [2] was 3680 nM.

Compound CCN(C)c1ccc2c(C)cc(=O)oc2c1 has an EC50 [1] of 18000 nM.

In the case of CCN(CC)c1ccc2c(C)c(CCOC(=O)NCc3ccccc3)c(=O)oc2c1, the EC50 [1] is reported as 302 nM and the EC50 [2] is reported as 317 nM.

Work on CCN(CC)c1ccc2c(C)c(CCN3C(=O)NC4(CCN(c5ncnc6[nH]cnc56)CC4)C3=O)c(=O)oc2c1 yielded an EC50 [1] of 110 nM and an EC50 [2] of 46 nM.

Work on CCN(CC)c1ccc2c(C)c(CCOC(=O)NCc3cccc(C(N)=O)c3)c(=O)oc2c1 yielded an EC50 [1] of 150 nM and an EC50 [2] of 228 nM.

For CCN(CC)c1ccc2c(C)c(CCN3C(=O)NC4(CCN(c5ncnc6[nH]cnc56)C4)C3=O)c(=O)oc2c1 (stereo not given), the EC50 [1] was 551 nM and the EC50 [2] was 355 nM.

Compound CCN(CC)c1ccc2c(C)c(CCN3CC4(CCN(c5ncccn5)CC4)NC3=O)c(=O)oc2c1 has an EC50 [1] of 48.1 nM and an EC50 [2] of 13.5 nM.

For CCN(CC)c1ccc2c(C)c(CCOC(=O)NCC3CCCNC3)c(=O)oc2c1 (stereo not given), the EC50 [1] was 1690 nM and the EC50 [2] was 8800 nM.

For CCN(CC)c1ccc2c(C)c(CCN3C(=O)NC4(CCN(c5ncccn5)C4)C3=O)c(=O)oc2c1 (stereo not given), the EC50 [1] was 1370 nM and the EC50 [2] was 688 nM.

CCN(CC)c1ccc2c(C)c(CCN3C(=O)NC4(CCN(c5ncnc6[nH]ncc56)CC4)C3=O)c(=O)oc2c1 showed an EC50 [1] of 103 nM and an EC50 [2] of 124 nM.

With CCN(CC)c1ccc2c(C)c(CCN3C(=O)NC4(CCN(c5nccn6ccnc56)CC4)C3=O)c(=O)oc2c1 the EC50 [1] was 62.4 nM and the EC50 [2] was 29.8 nM.

Work on CCN(CC)c1ccc2c(C)c(CCN3CC4(CCN(c5ncnc6[nH]ncc56)CC4)NC3=O)c(=O)oc2c1 yielded an EC50 [1] of 8.8 nM and an EC50 [2] of 4.7 nM.

For CCN(CC)c1ccc2c(C)c(CCN3C(=O)NC4(CCN(S(=O)(=O)c5cccnc5)C4)C3=O)c(=O)oc2c1 (stereo not given), the EC50 [1] was 313 nM and the EC50 [2] was 4370 nM.

Compound CCN(CC)c1ccc2c(C)c(CCN3C(=O)NC4(CCN(C(=O)c5c[nH]cn5)C4)C3=O)c(=O)oc2c1 (stereo not given) has an EC50 [1] of 855 nM and an EC50 [2] of 729 nM.

With CCN(CC)c1ccc2c(C)c(CCOC(=O)NCc3cccc(NC(C)=O)c3)c(=O)oc2c1 the EC50 [1] was 289 nM and the EC50 [2] was 194 nM.

For CCN(CC)c1ccc2c(C)c(CCOC(=O)N(C)CCc3cccnc3)c(=O)oc2c1, the EC50 [1] was 5280 nM and the EC50 [2] was > 20000 nM.

In the case of Cc1cc(=O)oc2cc(OCC(C)c3ccccc3)ccc12 (stereo not given), the EC50 [1] is reported as 558 nM and the EC50 [2] is reported as 444 nM.

With CCN(CC)c1ccc2c(C)c(CCOC(=O)NCc3cncc(NC(C)=O)c3)c(=O)oc2c1 the EC50 [1] was 816 nM and the EC50 [2] was 1170 nM.

Compound CCN(CC)c1ccc2c(C)c(CCN3C(=O)NC4(CCN(C(=O)c5ccc[nH]c5=O)CC4)C3=O)c(=O)oc2c1 has an EC50 [1] of 3970 nM and an EC50 [2] of 2700 nM.

In the case of C#CCN(CC#C)c1ccc2c(C)cc(=O)oc2c1, the EC50 [1] is reported as 2000 nM.

C#CCN(CC)c1ccc2c(C)cc(=O)oc2c1 gave an EC50 [1] of 2650 nM.

Compound CCN(c1ccc2c(C)cc(=O)oc2c1)C(C)C has an EC50 [1] of 9700 nM.

In the case of Cc1ccccc1C(C)Oc1ccc2c(C)cc(=O)oc2c1 (racemic), the solubility [4] is reported as “Nd(Insoluble)”.

For Cc1c(CCN2CC3(CCN(c4nccn5ccnc45)CC3)NC2=O)c(=O)oc2cc(OCC(C)c3ccccc3)ccc12 (stereo in doubt; 84a), the EC50 [1] was 8.6 nM and the EC50 [2] was 8.3 nM.

Cc1c(CCN2CC3(CCN(c4nccn5ccnc45)CC3)NC2=O)c(=O)oc2cc(OCC(C)c3ccccc3)ccc12 (stereo in doubt; 84b) gave an EC50 [1] of 11.5 nM and an EC50 [2] of 3.9 nM.
